Experimental data from US20220401457A1, “Use of Deoxycholic Acid, Derivatives, or Salts Thereof in Managing Bacterial Infections and Compositions Related Thereto” (Emory University, priority 2019, published 2022).

What was measured:
[1] = system: pneumococcal colonization (Spn); assay: Experiments mimicking pneumococcal colonization of the human airways; format: cell-based, Streptococcus pneumoniae; conditions: 0.5 mg/ml; colonization otherwise at density of 1×10^7 cfu/mL pneumococci
Protocol: (§1) Streptococcus pneumoniae (Spn) colonizes the upper airways of most children. From the upper airways, Spn migrates to the ear epithelium causing otitis media, a main cause of child disease in the US. Resistance in Spn strains is a serious concern. Bile salts produced in the human liver and secreted into the gut, including sodium deoxycholate. Sodium deoxycholate at a concentration of 10 mg/mL is an injectable treatment to reduce fat under the chin. The antibacterial potency of sodium deoxycholate against Spn was assessed. […] Most tested pneumococcal strains were reference strains provided by the Centers for Disease Control and Prevention (CDC). […] It is contemplated that sodium deoxycholate can be used as a prophylactic agent to eradicate Spn from the upper airways and/or as a therapeutic agent to treat pneumococcal otitis media. To eradicate Spn from the upper airways of healthy children, a strategy using the following routes can be pursued (1) the use of nasal spray to impregnate the upper airways with sodium deoxycholate, or (2) as an additive to a gel or toothpaste. For its therapeutic used in the treatment of otitis media, ototopical antibiotic preparations can be added with sodium deoxycholate to kill antibiotic resistance Spn strains.

[2] = system: Streptococcus pneumoniae (Spn) strains; assay: Antibacterial potency of sodium deoxycholate against cultures of Spn strains; format: cell-based; conditions: concentration as low as 0.5 mg/ml; within two hours of incubation; numerous different Spn strains including vaccine strains and strains with multiple resistance to antibiotics
Protocol: as §1

For sodium deoxycholate, the “time of exposure to eradicate pneumococcal colonization” value [1] was ≤ 10 min and the “killing of cultures of Spn strains” value [2] was “completely killed”.
